Assay results taken from US20220039416A1, “METHODS OF CONTROLLING THE RIPENING OF AGRICULTURAL PRODUCTS” (Apeel Technology, Inc., priority 2020, published 2022).

Legend:
[1] = test system: Cucumbers; assay: Respiration rate of cucumbers; assay type: in vivo, cucumber; conditions: 20° C., 5 days
Description: (§1) As used herein, the “respiration rate” of a product such as produce (e.g., a produce unit) refers to the rate at which the product releases CO2, and more specifically is the volume of CO2 (at standard temperature and pressure) released per unit time per unit mass of the product. In some embodiments, the respiration rate of a product can be measured by placing the product in a closed container of known volume that is equipped with a CO2 sensor, recording the CO2 concentration within the container as a function of time, and then calculating the rate of CO2 release required to obtain the measured concentration values. In some cases, the respiration rate of multiple produce units in a volume (e.g., a sealed or semi-sealed volume) is measured in a single measurement (e.g., as an average). It is understood that respiration rate may be determined by indirect methods, including, but not limited to, hyperspectral imaging, NIR, and other imaging or characterization processes.
Cucumbers were analyzed in the presence (2 ppm) and absence (0 ppm) of exogenous ethylene at 20° C. for 5 days. Four groups of cucumbers were analyzed. One group received no treatment. One group was treated with a chemical treatment (i.e., 1-MCP). One group was treated with a physical treatment A (40 g/L). […] The respiration rate and the mass loss rate of the cucumbers was measured

[2] = test system: Mexican avocados; assay: Respiration rate (CO2 release) of Mexican avocados; assay type: in vivo, avocado; conditions: for cumulative respiration factor (RF): Example 3
Description: as §1
As used herein, the term “respiration factor” is defined as the ratio of the cumulative respiration of uncoated produce (measured for a control group) to the cumulative respiration of the corresponding coated produce.
(§2) Four groups of 180 (i.e., 3 sets of 60) Mexican avocados were analyzed over four days. One group received no 1-MCP, and the other group was exposed for eight hours to 1-MCP using 2, 4, or 6 packets of 1-MCP (immobilized in cyclodextrin at 0.014%) per set. Each packet was wetted with water, and then placed in a sealed 30 L container along with 1 set of 60 avocados. The avocados were left in the sealed container for 8 hr. After 8 hours, the avocados were removed and the respiration rate was measured over the course of 4 days. Additionally, the firmness of the avocados (represented as durometer stage) was measured using a durometer.
(§3) Three groups of 60 Mexican avocados were analyzed over three days at ambient temperature. One group received no treatment. One group of avocados at stage 1 (i.e., after day 0) was exposed to 1-MCP for approximately 8 hours. One group of avocados at stage 3 (i.e., after day 2) was exposed to 1-MCP for approximately 8 hours. The respiration rate of the avocados was measured over the course of 3 days.
(§4) Three groups of 120 Mexican avocados were analyzed over about 5 days. One group received no treatment. One group was exposed to 1-MCP for 8 hours immediately after removal from cold storage at 4.5° C. (“cold 1-MCP”). One group was exposed to 1-MCP for 8 hours after the avocados spent 2 hours at ambient temperature (“semi-cold 1-MCP”). One group was exposed to 1-MCP for 8 hours after the avocados spent 6 hours at ambient temperature (“ambient 1-MCP”). The respiration rate of the avocados was measured over the course of 5 days. The firmness of the avocados was measured using a durometer.
Four groups of Mexican avocados were analyzed in order to investigate the minimum respiration peak that Mexican avocadoes should reach in order to ripen without quality issues. One group received no treatment. One group was treated with 1 layer of physical treatment (by bowl dipping and ambient drying; physical treatment A at 30 g/L with 3 g/L glycerol monocaprate). […] The respiration rate of the avocados was measured daily for three weeks. […]
To determine the difference in performance for treating avocados on a brush bed at varying concentrations before or after they have been put in ripening rooms, four flats of Mexican avocados were analyzed. […]

[3] = test system: Mexican avocados; assay: Firmness / durometer stage of Mexican avocados; assay type: in vivo, avocado
Description: In some embodiments, a stage of a produce unit (e.g., an avocado) is based on firmness, and can be measured in shores (e.g., using a durometer) and/or pounds of pressure (e.g., using a penetrometer), then correlated to a stage. In some embodiments, a stage of a produce unit can be based on other parameters, such as respiration rate and/or color).
as §2, §3, §4
(§5) To determine the difference in performance for treating avocados on a brush bed at varying concentrations before or after they have been put in ripening rooms, four flats of Mexican avocados were analyzed. One flat received no treatment. The other three flats were treated with physical treatment A at 12, 22, and 32 g/L, respectively, applied using brush bed system and subsequently dried at 50° C. Avocados treated with physical treatment A were also triggered with ethylene, either before or after treatment with physical treatment A. The respiration rate of the avocados was measured. The firmness of the avocados was measured using a durometer.

[4] = test system: Mexican avocados; assay: Quality defects of ripened Mexican avocados; assay type: in vivo, avocado
Description: as §2, §3, §5

[5] = test system: Cucumbers; assay: Mass loss rate of cucumbers; assay type: in vivo, cucumber; conditions: 20° C., 5 days
Description: (§6) As used herein, the “mass loss rate” refers to the rate at which the product loses mass (e.g. by releasing water and other volatile compounds). The mass loss rate is typically expressed as a percentage of the original mass per unit time (e.g., percent per day).
(§7) Cucumbers were analyzed in the presence (2 ppm) and absence (0 ppm) of exogenous ethylene at 20° C. for 5 days. Four groups of cucumbers were analyzed. One group received no treatment. One group was treated with a chemical treatment (i.e., 1-MCP). One group was treated with a physical treatment A (40 g/L). One group was treated with both a chemical treatment (i.e., 1-MCP) and physical treatment A (40 g/L). The respiration rate and the mass loss rate of the cucumbers was measured

[6] = test system: Cucumbers; assay: Aesthetics (yellowing, shrivel) of cucumbers; assay type: in vivo, cucumber; conditions: 5 days exposure to exogenous ethylene (2 ppm)
Description: as §7

[7] = test system: Persian limes; assay: Aesthetics (yellowing) of Persian limes; assay type: in vivo, Persian lime; conditions: over a 5 day period; same trends with 2 ppm ethylene
Description: (§8) Persian limes were analyzed in the presence (2 ppm) and absence (0 ppm) of exogenous ethylene at 20° C. for 5 days. Four groups of limes were analyzed. One group received no treatment. One group was treated with 1-MCP. One group was treated with physical treatment A (40 g/L). One group was treated with both 1-MCP and physical treatment A (40 g/L). The respiration rate of the limes was measured. The mass loss rate of the limes was measured.

[8] = test system: Persian limes; assay: Mass loss rate of Persian limes; assay type: in vivo, Persian lime; conditions: not exposed to ethylene and in the presence of 2 ppm ethylene, 20° C., 5 days
Description: as §6, §8

[9] = Example 3, semi-cold and ambient 1-MCP
[10] = Example 1, once allowed to ripen (about two weeks), 6 packets 1-MCP

`CC1=CC1` [1-MCP, 1-methylcyclopropene] was tested. Which respiration rate ([1]; absence of ethylene) did it give?
The respiration rate was “did not lower the overall respiration rate”.

And the respiration rate ([1]; exposed to ethylene (2 ppm))?
The respiration rate was “mitigated the corresponding increase in respiration rate”.

What about the respiration rate ([2]; Example 1, exposed 8 hr to 2, 4 or 6 packets 1-MCP (in cyclodextrin at 0.014%) in sealed 30 L container, measured over 4 days) of the same molecule?
Its respiration rate is “high upon removal but quickly decreased and continued to decrease through 4 days post-exposure”.

And the CO2 production ([2]; Example 2, 1-MCP exposure at stage 1)?
Its CO2 production is “continuous decrease in CO2 production, back to day 0 levels”.

What about the “cumulative respiration factor (RF)” value ([2]; cold 1-MCP: exposed 8 hours immediately after removal from 4.5° C. storage) of the same molecule?
The value was 1.8 ×.

And the “cumulative respiration factor (RF)” value ([2]; semi-cold (2 hours at ambient) and ambient (6 hours at ambient) 1-MCP exposure, 8 hours)?
The value was 2.5 ×.

And the “RF (respiration factor)” value ([2]; Example 7, 1-MCP 8 hours, regardless of subsequent ethylene exposure (24 hours at 200 ppm))?
Its value is 1.62 ×.

And the durometer stage ([3]; Example 1, 6 packets of 1-MCP, day 4 (untreated stage 5))?
Its durometer stage is 1.5.

And the softening rate ([3]; Example 2, 1-MCP applied at stage 3)?
Its softening rate is “slight effect”.

And the ripening ([3]; Example 3, cold 1-MCP)?
Its ripening is “ripening behavior was still observed”.

And the “ripening stage relative to control group” value ([3]; Example 3, cold 1-MCP, by the time the control group reached stage 5)?
Its value is “over two stages behind the control group”.

What about the ripening [3, 9] of the same molecule?
The ripening was “did not ripen effectively”.

What about the softening rate reduction [3, 9] of the same molecule?
The softening rate reduction was “greater softening rate reduction than cold 1-MCP”.

And the “checkerboarding (high variability of stage of ripeness)” value ([4]; Example 1)?
The value was “observed”.

What about the “feel of the avocados” value ([4]; Example 1) of the same molecule?
The value was “spongy”.

What about the “incidence of flesh adhesion” value [4, 10] of the same molecule?
The value was > 30%.

And the incidence of mold [4, 10]?
The incidence of mold was > 25%.

And the internal quality ([4]; Example 2)?
The internal quality was “did not improve internal quality”.

What about the “incidence of mold and vascular browning” value ([4]; Example 2, 1-MCP at stage 1 or stage 3, approximately 40 shore) of the same molecule?
Its value is 15-25%.

And the mass loss rate ([5]; absence of ethylene)?
The mass loss rate was “no impact”.

What about the mass loss rate ([5]; presence of ethylene (2 ppm)) of the same molecule?
Its mass loss rate is “lowered the mass loss rate”.

What about the yellowing [6] of the same molecule?
Its yellowing is “greater positive impact on the rate of yellowing”.

What about the yellowing / aesthetics [7] of the same molecule?
Its yellowing / aesthetics is “reduced the yellowing”.

What about the mass loss rate [8] of the same molecule?
Its mass loss rate is “no significant impact”.
